Reference: patent US10280149B2, “Therapeutic compounds and uses thereof” (GENENTECH, INC., priority 2015, dated 2019)
Structures can show the parent of a compound that is named as a salt.

Molecular target: Full length KDM2B (Homo sapiens (Human), UniProt Q8NHM5)
Assay: KDM2B TR-FRET assay for determining inhibitor IC50
Format: biochemical
Conditions: TR-FRET (HTRF), biotin-H3K36me2 peptide substrate, 2-OG 0.3 μM or 6 μM
Text: KDM2B TR-FRET Assay for Determining Inhibitor IC50
The KDM2B TR-FRET Assay described above represents an additional embodiment of the invention.

Chain of Full length KDM2B (Q8NHM5 whole entry): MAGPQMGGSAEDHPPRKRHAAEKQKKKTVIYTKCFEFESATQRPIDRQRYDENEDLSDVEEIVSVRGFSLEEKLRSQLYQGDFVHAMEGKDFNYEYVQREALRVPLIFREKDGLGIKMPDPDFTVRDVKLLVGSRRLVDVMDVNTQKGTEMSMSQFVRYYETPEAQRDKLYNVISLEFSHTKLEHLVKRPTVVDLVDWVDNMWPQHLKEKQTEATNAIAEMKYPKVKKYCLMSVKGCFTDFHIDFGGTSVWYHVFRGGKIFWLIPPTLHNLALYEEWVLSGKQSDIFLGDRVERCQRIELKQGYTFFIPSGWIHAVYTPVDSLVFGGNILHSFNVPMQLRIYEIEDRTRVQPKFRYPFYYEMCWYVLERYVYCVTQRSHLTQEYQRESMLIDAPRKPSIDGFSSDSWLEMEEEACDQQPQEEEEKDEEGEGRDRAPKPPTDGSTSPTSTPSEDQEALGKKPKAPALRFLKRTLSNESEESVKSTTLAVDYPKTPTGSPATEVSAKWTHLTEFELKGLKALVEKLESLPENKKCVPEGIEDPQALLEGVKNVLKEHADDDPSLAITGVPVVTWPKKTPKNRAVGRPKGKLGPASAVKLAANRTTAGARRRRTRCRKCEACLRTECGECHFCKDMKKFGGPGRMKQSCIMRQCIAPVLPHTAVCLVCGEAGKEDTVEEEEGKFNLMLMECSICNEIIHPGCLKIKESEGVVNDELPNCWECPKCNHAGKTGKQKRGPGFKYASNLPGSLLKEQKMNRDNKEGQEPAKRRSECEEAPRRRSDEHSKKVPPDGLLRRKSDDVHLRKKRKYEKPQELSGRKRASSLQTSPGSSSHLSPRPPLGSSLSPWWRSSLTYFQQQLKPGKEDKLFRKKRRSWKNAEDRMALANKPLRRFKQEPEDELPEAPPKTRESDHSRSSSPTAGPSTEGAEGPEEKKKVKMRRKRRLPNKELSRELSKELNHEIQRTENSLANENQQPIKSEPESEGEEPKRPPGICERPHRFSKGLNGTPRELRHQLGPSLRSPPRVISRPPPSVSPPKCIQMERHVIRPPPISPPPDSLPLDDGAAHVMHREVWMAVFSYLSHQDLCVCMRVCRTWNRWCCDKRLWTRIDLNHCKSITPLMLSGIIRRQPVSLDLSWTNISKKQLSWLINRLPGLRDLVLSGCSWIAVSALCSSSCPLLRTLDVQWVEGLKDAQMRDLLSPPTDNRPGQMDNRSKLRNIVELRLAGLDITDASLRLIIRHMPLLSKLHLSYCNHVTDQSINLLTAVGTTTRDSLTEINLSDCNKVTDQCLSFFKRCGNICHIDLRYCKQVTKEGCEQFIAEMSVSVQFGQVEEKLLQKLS

CCCN1CCCC(C(=O)c2cccc(OCc3ccccc3)c2)C1 (stereo not drawn) [Example 95, (3-benzyloxyphenyl)-(1-propyl-3-piperidyl)methanone]
IC50: 823 nM

CCC1CCN(C2CC2)CC1C(=O)c1ccc2cc(OC)ccc2c1 (single isomer, unassigned) [Example 147a, (1-cyclopropyl-4-ethylpiperidin-3-yl)(6-methoxynaphthalen-2-yl)methanone]
IC50: 2000 nM

CCCN1CCCC(C(=O)c2cccc(OC)c2)C1 (stereo not drawn) [Example 98, (3-methoxyphenyl)-(1-propyl-3-piperidyl)methanone]
IC50: 1600 nM

COc1cccc2cc(C(=O)C3CCCN(CC4CC4)C3)ccc12 (stereo not drawn) [Example 114, (1-(cyclopropylmethyl)piperidin-3-yl)(5-methoxynaphthalen-2-yl)methanone]
IC50: 220 nM

CCCC1CCN(C2CCC2)CC1C(=O)c1ccc2cc(OC)ccc2c1 (single isomer, unassigned) [Example 140a, (1-cyclobutyl-4-propylpiperidin-3-yl)(6-methoxynaphthalen-2-yl)methanone]
IC50: 310 nM

COc1ccc2cc(C(=O)C3CCCN(CC4CC4)C3)ccc2c1C (stereo not drawn) [Example 49, [1-(cyclopropylmethyl)-3-piperidyl]-(6-methoxy-5-methyl-2-naphthyl)methanone]
IC50: 163 nM

COc1ccc2cc(C(=O)[C@@H]3CN(CC4CC4)CC[C@H]3C)ccc2c1 (single isomer, unassigned) [Example 137b, (1-(cyclopropylmethyl)-4-methylpiperidin-3-yl)(6-methoxynaphthalen-2-yl)methanone]
IC50: 92.8 nM

CCC[C@@H]1CCN(C2CCC2)C[C@H]1C(=O)c1ccc2c(CC#N)c(OC)ccc2c1 (stereo in doubt) [Example 184c, 2-(6-(1-cyclobutyl-4-propylpiperidine-3-carbonyl)-2-methoxynaphthalen-1-yl)acetonitrile]
IC50: 3.13 nM

COc1ccc2cc(C(=O)C3CN(C4CCC4)CCN3Cc3ccccc3C#N)ccc2c1 (stereo not drawn) [Example 195, 2-[[4-cyclobutyl-2-(6-methoxynaphthalene-2-carbonyl)piperazin-1-yl]methyl]benzonitrile]
IC50: 176 nM

O=C(Nc1ccc2cc(C(=O)C3CCCN(CC4CC4)C3)ccc2c1)C1CC1 (stereo not drawn) [Example 175]
IC50: 355 nM

CN(C)C(=O)c1ccc2cc(C(=O)C3CCCN(CC4CC4)C3)ccc2c1 (stereo not drawn) [Example 176, 6-(1-(cyclopropylmethyl)piperidine-3-carbonyl)-N,N-dimethyl-2-naphthamide]
IC50: 214 nM

O=C(c1ccc(C(F)(F)F)cc1)C1CCCN(CC2CC2)C1 (stereo not drawn) [Example 22, [1-(cyclopropylmethyl)-3-piperidyl]-[4-(trifluoromethyl)phenyl]methanone]
IC50: 1400 nM

O=C(c1ccc(F)c2ccccc12)C1CCCN(CC2CC2)C1 (stereo not drawn) [Example 127, (1-(cyclopropylmethyl)piperidin-3-yl)(4-fluoronaphthalen-1-yl)methanone hydrochloride]
IC50: 1900 nM

CC[C@@H]1CCN(C2CCC2)C[C@H]1C(=O)c1ccc2cc(OC)ccc2c1 (single isomer, unassigned) [Example 142a, (1-cyclobutyl-4-ethylpiperidin-3-yl)(6-methoxynaphthalen-2-yl)methanone]
IC50: 11.4 nM

O=C(c1ccc(-c2ccccc2)cc1)[C@@H]1CCCN(CC2CC2)C1 [Example 32, [(3R)-1-(cyclopropylmethyl)-3-piperidyl]-(4-phenylphenyl)methanone]
IC50: 4100 nM

CCC1CCN(C2CCC2)CC1C(=O)c1ccc2cc(OC)ccc2c1 (single isomer, unassigned) [Example 142b, (1-cyclobutyl-4-ethylpiperidin-3-yl)(6-methoxynaphthalen-2-yl)methanone]
IC50: 349 nM

COc1ccc2cc(C(=O)C3CN(C4CCC4)CCN3Cc3cccc(C#N)c3)ccc2c1 (stereo not drawn) [Example 193, 3-[[4-cyclobutyl-2-(6-methoxynaphthalene-2-carbonyl)piperazin-1-yl]methyl]benzonitrile]
IC50: 22.3 nM

CCCN1CCCC(C(=O)c2ccc3c(c2)OCCO3)C1 (stereo not drawn) [Example 108, 2,3-dihydro-1,4-benzodioxin-6-yl-(1-propyl-3-piperidyl)methanone]
IC50: 297 nM

COc1ccc2cc(C(=O)C3CCCN(CCC#N)C3)ccc2c1 (stereo not drawn) [Example 84, 3-[3-(6-methoxynaphthalene-2-carbonyl)-1-piperidyl]propanenitrile]
IC50: 709 nM

COc1ccc2cc(C(=O)C3CCCN(CC4CC4)C3)ccc2c1 (stereo not drawn) [Example 77, [1-(cyclopropylmethyl)-3-piperidyl]-(6-methoxy-2-naphthyl)methanone]
IC50: 208 nM

COc1ccc2cc(C(=O)C3CCCN(CC4CC4)C3)ccc2c1CC#N (stereo not drawn) [Example 53, 2-[6-[1-(cyclopropylmethyl)piperidine-3-carbonyl]-2-methoxy-1-naphthyl]acetonitrile]
IC50: 33.5 nM

O=C(c1ccc(Cl)cc1)[C@H]1CCCN(CC2CC2)C1 (stereo in doubt) [Example 116b, (4-chlorophenyl)(1-(cyclopropylmethyl)piperidin-3-yl)methanone]
IC50: 1400 nM

Cc1c(C#N)ccc2cc(C(=O)C3CCCN(C4CCCC4)C3)ccc12 (stereo not drawn) [Example 73, 6-(1-cyclopentylpiperidine-3-carbonyl)-1-methyl-2-naphthonitrile]
IC50: 327 nM

CCCN1CCCC(C(=O)c2cccc(N(C)C)c2)C1 (stereo not drawn) [Example 90, [3-(dimethylamino)phenyl]-(1-propyl-3-piperidyl)methanone]
IC50: 1600 nM

O=C(c1ccc2ccccc2n1)C1CCCN(CC2CC2)C1 (single isomer, unassigned) [Example 117a, (1-(cyclopropylmethyl)piperidin-3-yl)(quinolin-2-yl)methanone]
IC50: 356 nM

COc1ccc(C(=O)[C@H]2CCCN(C3CCC3)C2)c(OC)c1 [Example 11, [(3S)-1-cyclobutyl-3-piperidyl]-(2,4-dimethoxyphenyl)methanone]
IC50: 153 nM

CS(=O)(=O)N1CCc2cc(C(=O)C3CCCN(C4CCC4)C3)ccc2C1 (stereo not drawn) [Example 149, (1-cyclobutylpiperidin-3-yl)(2-(methylsulfonyl)-1,2,3,4-tetrahydroisoquinolin-6-yl)methanone]
IC50: 163 nM

COc1ccc2cc(C(=O)C3CCCN(C4COC4)C3)ccc2c1 (stereo not drawn) [Example 14, (6-methoxy-2-naphthyl)-[1-(oxetan-3-yl)-3-piperidyl]methanone]
IC50: 1200 nM

CCCN1CCCC(C(=O)c2ccc(OC)c(OC)c2)C1 (stereo not drawn) [Example 104, (3,4-dimethoxyphenyl)-(1-propyl-3-piperidyl)methanone]
IC50: 744 nM

COc1ccc2cc(C(=O)[C@@H]3CCCN(C4CCC4)C3)ccc2c1CC#N (stereo in doubt) [Example 179b, 2-(6-(1-cyclobutylpiperidine-3-carbonyl)-2-methoxynaphthalen-1-yl)acetonitrile]
IC50: 361 nM

O=C(c1ccc2cnccc2c1)C1CCCN(C2CCC2)C1 (stereo not drawn) [Example 135]
IC50: 226 nM

COc1cccc2cc(C(=O)C3CN(CC4CC4)CCC3C)ccc12 (single isomer, unassigned) [Example 136a, (1-(cyclopropylmethyl)-4-methylpiperidin-3-yl)(5-methoxynaphthalen-2-yl)methanone]
IC50: 41.4 nM

COc1ccc2cc(C(=O)[C@H]3CCCN(C4CCCC4)C3)ccc2c1 [Example 10, [(3S)-1-cyclopentyl-3-piperidyl]-(6-methoxy-2-naphthyl)methanone]
IC50: 56.6 nM

COc1ccc2cc(C(=O)C3CC(O)CN(CC4CC4)C3)ccc2c1 (stereo not drawn) [Example 155, (1-(cyclopropylmethyl)-5-hydroxypiperidin-3-yl)(6-methoxynaphthalen-2-yl)methanone]
IC50: 779 nM

COc1ccc(C(=O)[C@@H]2CCCN(C3CCC3)C2)c(OC)c1 [Example 12, [(3R)-1-cyclobutyl-3-piperidyl]-(2,4-dimethoxyphenyl)methanone]
IC50: 9000 nM

CC(O)c1cc(C(=O)C2CCCN(CC3CC3)C2)cc2ccccc12 (stereo not drawn) [Example 67, [1-(cyclopropylmethyl)-3-piperidyl]-[4-(1-hydroxyethyl)-2-naphthyl]methanone]
IC50: 148 nM

CS(=O)(=O)c1ccc2cc(C(=O)C3CCCN(CC4CC4)C3)ccc2c1 (stereo not drawn) [Example 169, (1-(cyclopropylmethyl)piperidin-3-yl)(6-(methylsulfonyl)naphthalen-2-yl)methanone]
IC50: 112 nM

COc1ccc2cc(C(=O)C3CN(C4CCC4)CCN3Cc3ccc(C)cc3)ccc2c1 (stereo not drawn) [Example 196, [4-cyclobutyl-1-(p-tolylmethyl)piperazin-2-yl]-(6-methoxy-2-naphthyl)methanone]
IC50: 138 nM

COc1ccc2cc(C(=O)C3CN(C4CCC4)CCN3Cc3ccccc3)ccc2c1 (stereo not drawn) [Example 191, (1-benzyl-4-cyclobutyl-piperazin-2-yl)-(6-methoxy-2-naphthyl)methanone]
IC50: 102 nM

CCC1CCN(C2CCC2)CC1C(=O)c1ccc2cc(OC)ccc2c1 (single isomer, unassigned) [Example 142d, (1-cyclobutyl-4-ethylpiperidin-3-yl)(6-methoxynaphthalen-2-yl)methanone]
IC50: 6.56 nM

CCCN1CCCC(C(=O)c2ccc3c(C)c(OC)ccc3c2)C1 (stereo not drawn) [Example 50, (6-methoxy-5-methyl-2-naphthyl)-(1-propyl-3-piperidyl)methanone]
IC50: 26 nM

O=C(c1cccc(Oc2ccccc2)c1)[C@@H]1CCCN(CC2CC2)C1 [Example 29, [(3R)-1-(cyclopropylmethyl)-3-piperidyl]-(3-phenoxyphenyl)methanone]
IC50: 148 nM

COc1ccccc1C(=O)[C@@H]1CCCN(CC2CC2)C1 (stereo in doubt) [Example 111, (1-(cyclopropylmethyl)piperidin-3-yl)(2-methoxyphenyl)methanone]
IC50: 3100 nM

O=C(c1cccc(Cl)c1)C1CCCN(C2CCCC2)C1 (stereo not drawn) [Example 3, (3-chlorophenyl)-(1-cyclopentyl-3-piperidyl)methanone]
IC50: 23000 nM

COc1ccc2cc(C(=O)C3CCCN(C4CCCC4)C3)ccc2c1C (stereo not drawn) [Example 51, (1-cyclopentyl-3-piperidyl)-(6-methoxy-5-methyl-2-naphthyl)methanone]
IC50: 118 nM
